Assay results taken from patent US12098162B2, “Neutral glycosylated amides and dianionic glucuronidated acids as stabilizers for biological molecules” (Extremochem, LDA, priority 2017, dated 2024).

Tests used:
Format in all cases: physicochemical
ubiquitin = target: T1, ubiquitin (Homo sapiens, UniProt P0CG47); assay: Stabilization assay of ubiquitin measured by DSF; details: 0.25 M compound; phosphate buffer pH 12; Tm without compounds 72 °C; FIG. 4
T1 construct: Stabilization Assay of Ubiquitin Measured by DSF
Protocol: (§1) Differential Scanning Fluorimetry (DSF) Assay
(§2) The protein melting temperature (Tm) determination was performed by monitoring protein unfolding with the fluoroprobe SYPRO Orange dye (Molecular Probes), which although completely quenched in aqueous environment, emits fluorescence upon binding to protein hydrophobic patches. Such increase in fluorescence can be measured as a function of temperature. The thermal shift assay was performed on an iCycle iQ5 Real Time PCR Detection System (Bio-Rad), equipped with a charge-coupled device (CCD) camera and a Cy3 filter with excitation and emission wavelengths of 490 and 575 nm, respectively. This equipment can simultaneously detect the fluorescence changes in 96-well plates (low profile plate, Bio-Rad) and thus can be used for parallel thermal stability assays. […] The plates are subsequently heated from 20 to 90° C. with stepwise increments of 1° C. with 60 seconds equilibration time, followed by the fluorescence read out. Fluorescence intensities versus temperature are used to calculate the protein melting temperature (Tm) by determining the first derivative (d(Rfu)/dT) and extract the exact transition inflection point. Delta TM values (DTM) for the various conditions were calculated by subtracting the TM value obtained for the reference from the TM value obtained for each condition. […]

Factor IX = Factor IX (Homo sapiens, UniProt P00740); assay: Stabilization assay of Factor IX measured by DSF; details: 0.25 M stabiliser in water, pH 7-8; Tm without compounds 50 °C; FIG. 5
Sequence of Factor IX (P00740 47-461): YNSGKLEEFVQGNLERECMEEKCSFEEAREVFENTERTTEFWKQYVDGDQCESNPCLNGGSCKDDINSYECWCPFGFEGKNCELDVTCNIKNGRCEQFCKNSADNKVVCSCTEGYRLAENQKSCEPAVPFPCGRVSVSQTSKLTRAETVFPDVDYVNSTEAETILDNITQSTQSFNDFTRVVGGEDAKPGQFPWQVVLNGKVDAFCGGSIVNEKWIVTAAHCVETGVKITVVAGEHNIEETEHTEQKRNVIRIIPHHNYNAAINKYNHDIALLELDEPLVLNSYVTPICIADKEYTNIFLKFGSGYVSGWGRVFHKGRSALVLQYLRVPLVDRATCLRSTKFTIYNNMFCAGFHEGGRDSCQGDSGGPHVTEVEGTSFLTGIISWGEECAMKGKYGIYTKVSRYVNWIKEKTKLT
Protocol: as §1
(§3) The protein melting temperature (Tm) determination was performed by monitoring protein unfolding with the fluoroprobe SYPRO Orange dye (Molecular Probes), which although completely quenched in aqueous environment, emits fluorescence upon binding to protein hydrophobic patches. Such increase in fluorescence can be measured as a function of temperature. The thermal shift assay was performed on an iCycle iQ5 Real Time PCR Detection System (Bio-Rad), equipped with a charge-coupled device (CCD) camera and a Cy3 filter with excitation and emission wavelengths of 490 and 575 nm, respectively. This equipment can simultaneously detect the fluorescence changes in 96-well plates (low profile plate, Bio-Rad) and thus can be used for parallel thermal stability assays. The 96-well plates are sealed with optical quality sealing tape (Bio-Rad) and centrifuged at 2500 g for 1 minutes immediately before the assay to remove possible air bubbles. The plates are subsequently heated from 20 to 90° C. with stepwise increments of 1° C. with 60 seconds equilibration time, followed by the fluorescence read out. Fluorescence intensities versus temperature are used to calculate the protein melting temperature (Tm) by determining the first derivative (d(Rfu)/dT) and extract the exact transition inflection point. Delta TM values (DTM) for the various conditions were calculated by subtracting the TM value obtained for the reference from the TM value obtained for each condition.
(§4) In a typical assay with a total volume of 20 μL, a protein concentration from 0.1-0.5 mg/mL and a dye concentration of 5 fold were used to guarantee the best signal to noise ratio. The protein stock solutions were prepared in their corresponding buffers before performing the DSF experiments. Stabiliser solutions and dyes were prepared according to each assay specific conditions. The assay was prepared by adding 1-2 μL of protein to 8-9 μL of dye buffer solution, and 10 μL of compound solution. Controls were prepared by replacing the volume of stabilisers by the correspondent buffer.
Stabilization of Factor IX using neutral amide-containing glycosides of the present invention were measured using DSF. The new stabilizers increased the melting temperature of factor IX at a 0.25 M concentration in water and at pH 7-8, as shown in FIG. 5.

lysozyme = lysozyme (Gallus gallus, UniProt P00698); assay: Stabilization of lysozyme measured by DSF (melting temperature); details: 0.25 M stabiliser, FIG. 1; for stabilization effect on lysozyme (increase of melting temperature Tm): 25 mM sodium acetate buffer pH 3.6 and phosphate buffer pH 12, Tm without compounds 71 °C (pH 3.6) and 55 °C (pH 12); for stabilization effect on lysozyme at pH 12 compared with pH 3.6: DSF
Sequence of lysozyme (P00698 19-147): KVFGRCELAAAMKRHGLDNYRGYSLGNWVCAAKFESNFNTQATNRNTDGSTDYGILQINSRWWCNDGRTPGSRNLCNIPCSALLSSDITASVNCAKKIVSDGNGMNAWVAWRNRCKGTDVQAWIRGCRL
Protocol: as §1, §3, §4
The stabilization of lysozyme in the presence of several stabilisers at 0.25 M concentration and at pH 3.6 and pH 12 was studied using DSF (FIG. 1). […] The stabilization effect was higher for GBA, GaGlyA, b-GGlyA, b-GaLA, b-GaGlyA, and b-GaBA at the higher pH (pH 12). All new compounds are able to stabilise lysozyme under both stress conditions.

adalimumab (Humira®) [1] = assay: Stabilization assay of adalimumab (Humira) measured by HPSEC under low pH stress; details: GaGlyA 0.5 M; Humira 0.4 mg/ml; room temperature, no thermal stress; compared with no stabiliser; FIG. 2
Protocol: High Performance Size Exclusion Chromatography (HPSEC) Assay
HP-SEC was performed with Waters 515 pump, a Waters 2487 Dual Absorbance Detector (Waters, USA) and a Rheodyme 77251 injector (Waters, USA). A TSK Gel G3000 SWXL column (300 mm×7.8 mm) (Tosoh Biosep, Germany) was used. The volume of injection was adjusted according to each sample concentration in order to inject […] sample of biological molecule, and separation was performed at a flow rate of 1.0 mL/min or adjusted as appropriate. A suitable running buffer was used, e.g., 100 mM sodium sulfate, 100 mM sodium phosphate dibasic pH 6.8 for Humira® samples. UV detection was performed at a wavelength suitable to detect the biological molecule, e.g., 280 nm. No thermal stress was applied and assay was performed at room temperature. Absorbance was measured to determine the concentration of biological molecule and thus determine amount of degredation of the biological molecule.
A pH titration of adalimumab (Humira®) to pH 3.2 was performed either in the absence and presence of stabiliser GaGlyA 0.5 M, and the results were analysed by HPSEC (FIG. 2). […] Absorbance was measured to determine the concentration of biological molecule and thus determine amount of degredation of the biological molecule. […]

adalimumab (Humira®) [2] = assay: Stabilization assay of adalimumab measured by DSF; details: 0.25 M stabiliser; phosphate buffer pH 12; Tm without compounds 41 °C; FIG. 3
Protocol: as §1, §2

CC(CC(N)=O)OC1O[C@H](CO)[C@@H](O)[C@H](O)[C@H]1O (stereo partly drawn) [GBA, 3-O-(α/β-D-glucopyranosyl)-3-hydroxybutyramide]
increase of the melting temperature of ubiquitin (ubiquitin): 9 °C
stabilization of Factor IX (increase of melting temperature) (Factor IX): showed stabilization of factor IX
stabilization effect on lysozyme (increase of melting temperature Tm) (lysozyme): showed a stabilization effect
stabilization effect on lysozyme at pH 12 compared with pH 3.6 (lysozyme): higher

NC(=O)COC1O[C@H](CO)[C@@H](O)[C@H](O)[C@H]1O (stereo partly shown) [GGlyA]
stabilization of Factor IX (increase of melting temperature) (Factor IX): showed stabilization of factor IX

NC(=O)COC1O[C@H](CO)[C@H](O)[C@H](O)[C@H]1O (stereo partly shown) [GaGlyA]
stabilization effect on lysozyme (increase of melting temperature Tm) (lysozyme): showed a stabilization effect
stabilization effect on lysozyme at pH 12 compared with pH 3.6 (lysozyme): higher
degradation of adalimumab after 12 hours at pH 3.2 (HPSEC) (adalimumab (Humira®) [1]): much reduced

C[C@H](OC1O[C@H](CO)[C@H](O)[C@H](O)[C@H]1O)C(N)=O (stereo partly shown) [GaLA]
stabilization of Factor IX (increase of melting temperature) (Factor IX): showed stabilization of factor IX
stabilization effect on lysozyme (increase of melting temperature Tm) (lysozyme): showed a stabilization effect

C[C@H](O[C@H]1O[C@H](CO)[C@@H](O)[C@H](O)[C@@H]1O)C(N)=O [MLA, (2S)-2-O-(α-D-mannopyranosyl)-3-propanamide]
stabilization effect on lysozyme (increase of melting temperature Tm) (lysozyme): showed a stabilization effect

NC(=O)CO[C@H]1O[C@H](CO)[C@@H](O)[C@H](O)[C@@H]1O [MglyA, 2-O-(α-D-mannopyranosyl)acetamide]
stabilization of Factor IX (increase of melting temperature) (Factor IX): showed stabilization of factor IX
stabilization effect on lysozyme (increase of melting temperature Tm) (lysozyme): showed a stabilization effect

CC(CC(N)=O)O[C@@H]1O[C@H](CO)[C@H](O)[C@H](O)[C@H]1O (stereo partly drawn) [b-GaBA, 3-O-(β-D-galactopyranosyl)-3-hydroxybutyramide]
stabilization effect on lysozyme (increase of melting temperature Tm) (lysozyme): showed a stabilization effect
stabilization effect on lysozyme at pH 12 compared with pH 3.6 (lysozyme): higher
increase of the melting temperature of adalimumab (adalimumab (Humira®) [2]): 22 °C

beta-galactosyl-lactamide [b-GaLA]
stabilization effect on lysozyme (increase of melting temperature Tm) (lysozyme): showed a stabilization effect
stabilization effect on lysozyme at pH 12 compared with pH 3.6 (lysozyme): higher

beta-glucosyl-lactamide [b-GLA]
stabilization effect on lysozyme (increase of melting temperature Tm) (lysozyme): showed a stabilization effect
